Results published in ChEMBL document CHEMBL1153211, “Evaluation of secondary amide replacements in a series of CCR5 antagonists as a means to increase intrinsic membrane permeability. Part 1: Optimization of gem-disubstituted azacycles” (Bioorg Med Chem Lett, 2010).

What was measured:
[1] = target: C-C chemokine receptor type 5 (Homo sapiens, UniProt P51681); assay: Antagonist activity at human CCR5; format: functional
[2] = tested on: Human immunodeficiency virus 1; assay: Antiviral activity against HIV1 infected in human JC53-BL cells after 3 days by luciferase reporter gene assay; format: functional, organism-based; conditions: Human immunodeficiency virus 1, JC53BL, 72 h
[3] = Apparent permeability from apical to basolateral side of human Caco-2 cells after 21 days

Chain of C-C chemokine receptor type 5 (P51681 whole entry): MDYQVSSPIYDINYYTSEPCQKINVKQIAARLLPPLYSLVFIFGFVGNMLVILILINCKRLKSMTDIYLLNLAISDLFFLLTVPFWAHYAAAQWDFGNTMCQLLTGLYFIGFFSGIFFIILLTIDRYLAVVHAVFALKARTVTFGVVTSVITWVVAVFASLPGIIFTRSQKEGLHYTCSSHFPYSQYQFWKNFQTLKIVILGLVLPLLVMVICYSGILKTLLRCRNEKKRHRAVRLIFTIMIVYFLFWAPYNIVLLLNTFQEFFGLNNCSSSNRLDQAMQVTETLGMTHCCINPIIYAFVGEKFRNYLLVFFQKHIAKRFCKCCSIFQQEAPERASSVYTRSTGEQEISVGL

Row | Compound | IC50 [1] | IC50 [2] | Papp A→B [3]
1 | Cc1ncnc(C)c1C(=O)N1C[C@H]2CN(CCC3(c4ccccc4)CN(C(=O)C4CCC(F)(F)CC4)C3)C[C@H]2C1 | 28 nM | 21 nM | –
2 | Cc1nc(C(F)(F)F)nc(C)c1C(=O)N1C[C@H]2CN(CCC3(c4ccccc4)CN(C(=O)C4CCC(F)(F)CC4)C3)C[C@H]2C1 | 30 nM | 4 nM | –
3 | Cc1ccnc(C)c1C(=O)N1C[C@H]2CN(CCC3(c4ccccc4)CN(C(=O)C4CCC(F)(F)CC4)C3)C[C@H]2C1 | 38 nM | 12 nM | –
4 | Cc1cc(C#N)nc(C)c1C(=O)N1C[C@H]2CN(CCC3(c4ccccc4)CN(C(=O)C4CCC(F)(F)CC4)C3)C[C@H]2C1 | 17 nM | 2 nM | 0.53 ×10⁻⁶ cm/s
5 | Cc1cc(C#N)nc(C)c1C(=O)N1C[C@H]2CN(CCC3(c4ccccc4)CN(C(=O)C4CC(F)(F)C4)C3)C[C@H]2C1 | 24 nM | 4 nM | 0.44 ×10⁻⁶ cm/s
6 | Cc1cc(C(F)(F)F)nc(C)c1C(=O)N1C[C@H]2CN(CCC3(c4ccccc4)CN(C(=O)C4CCC(F)(F)CC4)C3)C[C@H]2C1 | 21 nM | 61.2 nM | 1.72 ×10⁻⁶ cm/s
7 | Cc1cc(C(F)(F)F)nc(C)c1C(=O)N1C[C@H]2CN(CCC3(c4ccccc4)CN(C(=O)C4CC(F)(F)C4)C3)C[C@H]2C1 | 22 nM | 4 nM | 1.59 ×10⁻⁶ cm/s
8 | Cc1nc(C(F)(F)F)nc(C)c1C(=O)N1C[C@H]2CN(CCC3(c4ccccc4)CN(C(=O)C4CCOC4)C3)C[C@H]2C1 (stereo partly specified) | 38 nM | 59 nM | –
9 | Cc1nc(C(F)(F)F)nc(C)c1C(=O)N1C[C@H]2CN(CCC3(c4ccccc4)CN(C(=O)C4CC(F)(F)C4)C3)C[C@H]2C1 | 66 nM | 23 nM | –
10 | Cc1ncnc(C)c1C(=O)N1C[C@H]2CN(CCC3(c4ccccc4)CN(C(=O)C4CC(F)(F)C4)C3)C[C@H]2C1 | 30 nM | 39 nM | –
11 | Cc1ncnc(C)c1C(=O)N1C[C@H]2CN(CCC3(c4ccccc4)CN(S(=O)(=O)C4CCCC4)C3)C[C@H]2C1 | 27 nM | 40 nM | –
12 | Cc1ncnc(C)c1C(=O)N1C[C@H]2CN(CCC3(c4ccccc4)CCN(C(=O)C(C)(C)C)C3)C[C@H]2C1 (stereo partly specified) | 242 nM | – | –
13 | Cc1ncnc(C)c1C(=O)N1C[C@H]2CN(CCC3(c4cccc(F)c4)CCN(C(=O)CC(C)(C)C)CC3)C[C@H]2C1 | – | 447 nM | –
14 | Cc1ncnc(C)c1C(=O)N1C[C@H]2CN(CCC3(c4cccc(F)c4)CCN(C(=O)C(C)(C)CO)CC3)C[C@H]2C1 | 167 nM | – | –
15 | Cc1cc(C#N)nc(C)c1C(=O)N1C[C@H]2CN(CCC3(c4cccc(F)c4)CCN(C(=O)C(C)(C)C)CC3)C[C@H]2C1 | 15 nM | 18 nM | 2.73 ×10⁻⁶ cm/s
16 | Cc1cc(C#N)nc(C)c1C(=O)N1C[C@H]2CN(CCC3(c4ccccc4)CCN(C(=O)C4CCCC4)C3)C[C@H]2C1 (stereo partly specified) | 46 nM | 24 nM | 2.55 ×10⁻⁶ cm/s
17 | Cc1ncnc(C)c1C(=O)N1C[C@H]2CN(CCC3(c4cccc(F)c4)CCN(C(=O)C(C)(C)C)CC3)C[C@H]2C1 | 59 nM | 67 nM | 2.98 ×10⁻⁶ cm/s
18 | Cc1cc(C#N)nc(C)c1C(=O)N1C[C@H]2CN(CCC3(c4ccccc4)CCN(C(=O)C(C)(C)C)C3)C[C@H]2C1 (stereo partly specified) | 69 nM | – | –
19 | Cc1ncnc(C)c1C(=O)N1C[C@H]2CN(CCC3(c4ccccc4)CN(C(=O)C4CCCC4)C3)C[C@H]2C1 | 67 nM | 60 nM | –
20 | Cc1ncnc(C)c1C(=O)N1C[C@H]2CN(CCC3(c4cccc(F)c4)CCN(C(=O)C(C)C)CC3)C[C@H]2C1 | 102 nM | > 400 nM | –
21 | Cc1ncnc(C)c1C(=O)N1C[C@H]2CN(CCC3(c4ccccc4)CCN(C(=O)C4CCCC4)C3)C[C@H]2C1 (stereo partly specified) | 116 nM | 351 nM | –
22 | Cc1ccnc(C)c1C(=O)N1C[C@H]2CN(CCC3(c4ccccc4)CN(C(=O)C4CC(F)(F)C4)C3)C[C@H]2C1 | 60 nM | 55 nM | –
23 | Cc1ncnc(C)c1C(=O)N1C[C@H]2CN(CCC3(c4ccccc4)CN(C(=O)CC4CCCC4)C3)C[C@H]2C1 | 28 nM | 53 nM | –
24 | Cc1ncnc(C)c1C(=O)N1C[C@H]2CN(CCC3(c4ccccc4)CN(C(=O)C4CCOC4)C3)C[C@H]2C1 (stereo partly specified) | 55 nM | 204 nM | –
25 | CC(=O)N1CCC(CCN2C[C@@H]3CN(C(=O)c4c(C)ncnc4C)C[C@@H]3C2)(c2cccc(F)c2)CC1 | > 500 nM | – | –
26 | Cc1ncnc(C)c1C(=O)N1C[C@H]2CN(CCC3(c4ccccc4)CN(C(=O)C(C)(C)CO)C3)C[C@H]2C1 | 56 nM | 130 nM | –
27 | Cc1ncnc(C)c1C(=O)N1C[C@H]2CN(CCC3(c4ccccc4)CN(C(=O)C(C)(C)C)C3)C[C@H]2C1 | 27 nM | 77 nM | –
